Laboratory results as given in the supplement of paper PMC10307832.

How the values were obtained:
Assay in all cases: relative viability (nuclei count vs DMSO), 5 days (fraction); higher = more cells survive
[1] = compound: CC(O)(CS(=O)(=O)c1ccc(F)cc1)C(=O)Nc1ccc(C#N)c(C(F)(F)F)c1 [Bicalutamide] + Nc1nc2[nH]cc(CCc3ccc(C(=O)N[C@@H](CCC(=O)O)C(=O)O)cc3)c2c(=O)[nH]1 [Pemetrexed] (partner 0.2 µM)
How it was run: (§1)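 Relative viability equals treated-well nuclei counts divided by vehicle-well nuclei counts. Counts came from 4× images of lung cancer cell lines grown in 1536-well plates for 5 days after pin-tool dosing on the day after seeding. Dosing used one drug alone or a fixed anchor-drug dose plus five library-drug doses (not always all listed) in √10 steps, and values are medians of duplicate plates.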

[2] = compound: CC(O)(CS(=O)(=O)c1ccc(F)cc1)C(=O)Nc1ccc(C#N)c(C(F)(F)F)c1 [Bicalutamide] + CC(=O)Nc1cccc(-n2c(=O)n(C3CC3)c(=O)c3c(Nc4ccc(I)cc4F)n(C)c(=O)c(C)c32)c1 [Trametinib] (partner 0.02 µM)
How it was run: as §1

Bicalutamide + Foretinib = compound: CC(O)(CS(=O)(=O)c1ccc(F)cc1)C(=O)Nc1ccc(C#N)c(C(F)(F)F)c1 [Bicalutamide] + COc1cc2c(Oc3ccc(NC(=O)C4(C(=O)Nc5ccc(F)cc5)CC4)cc3F)ccnc2cc1OCCCN1CCOCC1 [Foretinib] (partner 0.25 µM)
How it was run: as §1

[3] = compound: C(C(=O)C(=O)O)Br [Bromopyruvate] + Nc1nc2[nH]cc(CCc3ccc(C(=O)N[C@@H](CCC(=O)O)C(=O)O)cc3)c2c(=O)[nH]1 [Pemetrexed] (partner 0.2 µM)
How it was run: as §1

Cell Line | relative viability ([1]; first compound 0.08 µM) | relative viability ([1]; first compound 0.253 µM) | relative viability ([1]; first compound 0.8 µM) | relative viability ([1]; first compound 2.53 µM) | relative viability ([2]; first compound 0.08 µM) | relative viability ([2]; first compound 0.253 µM) | relative viability ([2]; first compound 0.8 µM) | relative viability ([2]; first compound 2.53 µM) | relative viability (Bicalutamide + Foretinib; first compound 0.08 µM) | relative viability (Bicalutamide + Foretinib; first compound 0.253 µM) | relative viability (Bicalutamide + Foretinib; first compound 0.8 µM) | relative viability (Bicalutamide + Foretinib; first compound 2.53 µM) | relative viability ([3]; first compound 1 µM) | relative viability ([3]; first compound 3.162 µM) | relative viability ([3]; first compound 10 µM) | relative viability ([3]; first compound 31.62 µM) | relative viability ([3]; first compound 100 µM)
LC-2-ad | 0.268 | 0.256 | 0.275 | 0.267 | 0.892 | 0.86 | 0.961 | 0.907 | 0.969 | 0.829 | 1.02 | 1.03 | 0.294 | 0.287 | 0.269 | 0.298 | 0.298
CAL-12T | 1.34 | 1.06 | 1.28 | 1.14 | 0.37 | 0.343 | 0.398 | 0.264 | 1.11 | 1.04 | 1.32 | 1.13 | 1.26 | 1.05 | 1.25 | 1.1 | 1.05
SK-LU-1 | 1.03 | 1.02 | 1.19 | 0.928 | 0.52 | 0.565 | 0.576 | 0.443 | 0.99 | 0.785 | 1.01 | 0.78 | 0.998 | 0.961 | 1.02 | 0.886 | 0.874
NCI-H1650 | 0.353 | 0.411 | 0.433 | 0.365 | 0.586 | 0.529 | 0.713 | 0.473 | 1.28 | 1.17 | 1.14 | 1.27 | 0.39 | 0.435 | 0.37 | 0.406 | 0.266
BEN | 0.854 | 0.74 | 1.15 | 0.837 | 1.05 | 0.94 | 1.17 | 1.1 | 0.604 | 0.609 | 0.791 | 0.682 | 0.87 | 0.656 | 0.833 | 0.62 | 0.753
EMC-BAC-2 | 0.447 | 0.41 | 0.489 | 0.444 | 0.911 | 0.771 | 0.891 | 0.728 | 1.02 | 0.867 | 1.02 | 0.928 | 0.422 | 0.45 | 0.451 | 0.479 | 0.453
LU99A | 0.19 | 0.163 | 0.206 | 0.183 | 0.529 | 0.445 | 0.6 | 0.495 | 0.773 | 0.815 | 0.892 | 0.578 | 0.178 | 0.21 | 0.169 | 0.202 | 0.165
NCI-H2170 | 0.251 | 0.262 | 0.281 | 0.25 | 0.892 | 0.861 | 0.97 | 0.931 | 0.993 | 1 | 1.1 | 0.98 | 0.277 | 0.27 | 0.249 | 0.258 | 0.626
NCI-H2405 | 1.07 | 1.01 | 1.35 | 1.04 | 0.674 | 0.606 | 0.78 | 0.638 | 1.04 | 1.03 | 1.11 | 1.01 | 1.14 | 1.06 | 1.24 | – | 0.728
NCI-H2009 | 1.13 | 1.04 | 1.11 | 0.91 | 0.296 | 0.225 | 0.296 | 0.248 | 1.35 | 1.23 | 1.19 | 1.17 | 1.01 | 1.04 | 0.936 | 0.868 | 1.11
NCI-H441 | 0.311 | 0.281 | 0.284 | 0.272 | 0.492 | 0.374 | 0.497 | 0.406 | 1.19 | 0.894 | 0.964 | 0.787 | 0.255 | 0.282 | 0.299 | 0.274 | 0.271
PC-14 | 0.121 | 0.121 | 0.119 | 0.117 | 0.879 | 0.738 | 0.926 | 0.72 | 0.951 | 0.905 | 1.03 | 0.965 | 0.141 | 0.143 | 0.14 | 0.154 | 0.123
HARA | 0.233 | – | 0.299 | 0.251 | 0.942 | – | 0.634 | 0.48 | 0.931 | 0.836 | 1.17 | 0.897 | 0.275 | 0.232 | – | 0.219 | 0.271
NCI-H2126 | 0.675 | 0.597 | 0.785 | 0.638 | 0.546 | 0.523 | 0.545 | 0.626 | 1.21 | 1.19 | 1.36 | 1.18 | 0.702 | 0.636 | 0.66 | 0.677 | 0.695
NCI-H1437 | 0.312 | 0.303 | 0.349 | 0.316 | 0.598 | 0.475 | 0.612 | 0.476 | 1.28 | 1.29 | 1.24 | 1.27 | 0.307 | 0.315 | 0.339 | 0.329 | 0.337
NCI-H2342 | 0.764 | 0.761 | 0.89 | 0.751 | 0.771 | 0.807 | 0.768 | 0.805 | 1.08 | 1.13 | 1.09 | 1.08 | 0.848 | 0.779 | 0.847 | 0.636 | 0.74
ChaGo-K-1 | 0.256 | 0.252 | 0.251 | 0.247 | 0.854 | 0.865 | 1.03 | 0.926 | 0.897 | 0.748 | 0.937 | 0.825 | 0.266 | 0.254 | 0.261 | 0.27 | 0.259
NCI-H661 | 0.939 | 0.965 | 0.942 | 0.896 | 0.631 | 0.534 | 0.621 | 0.558 | 1.02 | 1.04 | 1.04 | 0.958 | 0.905 | 0.944 | 0.985 | 0.889 | 0.907
COR-L23 | 0.204 | 0.203 | 0.184 | 0.196 | 0.616 | 0.545 | 0.71 | 0.579 | 1.04 | 0.981 | 1.12 | 1.02 | 0.184 | 0.194 | 0.195 | 0.183 | 0.202
